# Columns and labels:
# [1] = biological target: T1, Cholecystokinin receptor type A (Homo sapiens, UniProt P32238); experiment: Activity at CCK1R (unknown origin) expressed in CHO cells assessed as CCK EC50 measured as intracellular calcium responses at 1000 nM (Rvb = 7 to 14 pM)
# T1 sequence (P32238 whole entry): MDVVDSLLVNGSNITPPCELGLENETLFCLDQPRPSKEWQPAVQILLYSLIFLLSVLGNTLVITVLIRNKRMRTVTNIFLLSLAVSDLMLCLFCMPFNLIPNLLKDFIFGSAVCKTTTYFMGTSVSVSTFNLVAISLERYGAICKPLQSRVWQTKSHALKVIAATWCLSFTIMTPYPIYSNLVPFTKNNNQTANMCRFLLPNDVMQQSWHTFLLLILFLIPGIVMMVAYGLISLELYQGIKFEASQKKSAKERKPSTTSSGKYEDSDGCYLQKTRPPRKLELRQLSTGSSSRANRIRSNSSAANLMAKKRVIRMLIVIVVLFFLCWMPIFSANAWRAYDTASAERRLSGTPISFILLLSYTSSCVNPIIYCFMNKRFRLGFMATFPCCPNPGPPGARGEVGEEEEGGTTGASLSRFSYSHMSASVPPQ
# [2] = biological target: T1, Cholecystokinin receptor type A; experiment: Activity at CCK1R (unknown origin) expressed in CHO cells assessed as CCK EC50 measured as intracellular calcium responses at 100 nM (Rvb = 7 to 14 pM)
# [3] = biological target: T1, Cholecystokinin receptor type A
# [4] = biological target: T1, Cholecystokinin receptor type A; remark: listed apart in the source
SMILES,EC50 [1] [nM],EC50 [2] [nM],IC50 [3] [nM],IC50 [4] [nM]
O=C(CN1C(=O)C(NC(=O)Nc2ccccc2)C(=O)N(c2ccccc2)c2ccccc21)Nc1ccccc1 (stereo unspecified),0.039,0.014,,
"COc1ccc(N(C)C(=O)CN2C(=O)C(NC(=O)Nc3ccccc3)C(=O)N(c3ccccc3)c3ccccc32)cc1 (stereo unspecified) [2-[2,4-Dioxo-5-phenyl-3-(3-phenyl-ureido)-2,3,4,5-tetrahydro-benzo[b][1,4]diazepin-1-yl]-N-(4-methoxy-phenyl)-N-methyl-acetamide]",0.120,0.051,14,25

# — BindingDB's records for doi:10.1016/j.bmcl.2015.03.051 (Mayo Clinic, 2015)
